Laboratory results taken from patent US20250214965A1, “COMPOUND AS KIF18A INHIBITOR” (Hangzhou Innogate Pharma Co., Ltd., priority 2021, published 2025).
Like-named read-outs stand apart in the source and are kept apart here.

Key:
[1] = tested on: OVCAR-3; test: Inhibition of proliferation of ovarian cancer cell line OVCAR-3 (CellTiter Glo); type: cell-based; conditions: read-out: OVCAR-3 IC50
[2] = tested on: HCC1954; test: Inhibition of proliferation of breast cancer cell line HCC1954 (CellTiter Glo); type: cell-based; conditions: HCC1954 cells, 96 hours
[3] = tested on: HCC1806; test: Inhibition of proliferation of breast cancer cell line HCC1806 (CellTiter Glo); type: cell-based; conditions: read-out: HCC1806 IC50
[4] = target: KIF18A (Homo sapiens (Human), UniProt Q8NI77); test: Inhibition of KIF18A enzyme activity (ADP-Glo); type: biochemical; conditions: 60 min at 25° C.
Chain of KIF18A (Q8NI77 whole entry): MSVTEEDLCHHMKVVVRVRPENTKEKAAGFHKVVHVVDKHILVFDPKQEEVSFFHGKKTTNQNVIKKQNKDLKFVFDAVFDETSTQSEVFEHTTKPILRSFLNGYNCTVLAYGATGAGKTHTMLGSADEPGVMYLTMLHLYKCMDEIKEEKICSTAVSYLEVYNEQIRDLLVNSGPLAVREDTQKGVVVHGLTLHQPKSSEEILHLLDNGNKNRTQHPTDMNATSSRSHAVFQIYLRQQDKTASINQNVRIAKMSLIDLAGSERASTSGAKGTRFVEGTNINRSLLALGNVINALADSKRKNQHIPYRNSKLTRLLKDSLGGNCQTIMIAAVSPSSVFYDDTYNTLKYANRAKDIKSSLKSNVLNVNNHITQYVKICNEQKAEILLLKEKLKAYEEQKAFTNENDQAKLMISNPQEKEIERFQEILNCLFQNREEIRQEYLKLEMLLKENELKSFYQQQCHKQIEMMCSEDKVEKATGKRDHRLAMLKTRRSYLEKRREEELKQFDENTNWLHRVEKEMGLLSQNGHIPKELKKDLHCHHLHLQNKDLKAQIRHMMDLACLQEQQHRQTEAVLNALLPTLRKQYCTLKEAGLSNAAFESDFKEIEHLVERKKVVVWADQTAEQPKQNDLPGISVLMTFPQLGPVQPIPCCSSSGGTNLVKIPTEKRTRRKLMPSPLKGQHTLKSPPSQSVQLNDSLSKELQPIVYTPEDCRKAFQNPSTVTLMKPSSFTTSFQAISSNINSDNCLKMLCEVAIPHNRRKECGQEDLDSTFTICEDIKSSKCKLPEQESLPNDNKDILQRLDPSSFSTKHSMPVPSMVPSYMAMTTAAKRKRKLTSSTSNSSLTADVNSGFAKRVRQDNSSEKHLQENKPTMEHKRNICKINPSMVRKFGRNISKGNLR
Experimental: The ADP-Glo method was used to test the enzymatic activity of KIF18A. The compound was diluted 3-fold with DMSO at a starting concentration of 3000 nM, for a total of ten concentrations, and tested in duplicate. Echo was used to transfer 25 nL of the diluted compound to a 384-well plate, and 2.5 μL of enzyme working solution was added. Plate was centrifuged at 1000 rpm for 1 min, and incubated at 25° C. for 10 min. 2.5 μL of ATP and substrate solution was added to start the reaction, and plate was incubated at 25° C. for 60 min. 4 μL of ADP-Glo solution was added to the 384-well plate, and plate was incubated at 25° C. for 40 min. 8 μL of detection solution was added and incubated at 25° C. for 40 min, and BMG was used to read the […] value. Inhibition rate was calculate according to the following formula: Inhibition rate (%)=(DMSO well−compound well)/(DMSO well−blank control well)×100%. The IC50 value of each compound was analyzed using the nonlinear regression method of XLFit 5.5.0 software. The formula is: Y=Bottom+(Top−Bottom)/(1+10^((Log IC50−X)*HillSlope)).

[5] = Pharmacokinetic study in rats
Experimental: (§1) Instruments: XEVO TQ-S LC/MS instrument was produced by Waters. All measurement data were collected and processed by Masslynx V4.1 software, and the data were calculated and processed by Microsoft Excel. The statistical moment method of WinNonLin 8.0 software was used to calculate the pharmacokinetic parameters. These mainly include kinetic parameters Tmax, T1/2, Cmax, AUC0-24h etc. Column: ACQUITY UPLC BEH C18 (2.1 mm×50 mm, 1.7 m); column temperature 40° C.; mobile phase A is water (0.1% formic acid), mobile phase B is acetonitrile, flow rate is 0.350 mL/min, gradient elution is adopted, the elution gradient is 0.50 min: 10% B; 1.50 min: 90% B; 2.50 min: 90% B; 2.51 min: 10% B; 3.50 min: stop. Injection volume: 1 μL.
(§2) Animals: 3 male SD rats with a weight range of 200-220 g were purchased and kept in the laboratory of the Experimental Animal Center for 2 days and then used. They were fasted for 12 hours predose and 4 hours after dosing. Drinking water was free during the test. After the rats were gavage, blood samples were taken according to the established time point.
(§3) Solvent: 0.4% ethanol+0.4% Tween80+99.2% (0.5% methylcellulose M450). Preparation of the solution for intragastrical administration: the compounds were accurately weighed and added to the solvent, and ultrasound was used at room temperature for 5 minutes to completely dissolve the drug, and a 0.3 mg/mL medicinal solution was prepared.
(§4) Pharmaceutical samples: Generally, multiple samples with similar structures (with a molecular weight difference of more than 2 units) are taken, accurately weighed, and administered together (cassette PK). In this way, multiple compounds can be screened at the same time and their oral absorption rates can be compared. A single administration was also used to study the pharmacokinetics of the drug sample in rats.
(§5) After intragastrical administration, blood was taken from the orbit at 0.25, 0.5, 1, 2, 4, 8, 10 and 24 hours. Then 50 μL of the plasma sample was taken and added 200 μL of acetonitrile (including internal standard control verapamil 2 ng/mL), vortexed for 3 min and centrifuged at 20000 rcf, 4° C. for 10 min. The supernatant plasma was used for LC-MS/MS analysis.
(§6) The compounds were accurately weighed to prepare different concentrations, and quantitative analysis on mass spectrometry was performed to establish a standard curve, and then the concentration of the above-mentioned compound in the plasma was tested to obtain its concentration at different time points. All measurement data were collected and processed by relevant software, and the statistical moment method was used to calculate the pharmacokinetic parameters (mainly including kinetic parameters Tmax, T1/2, Cmax, AUC0-24h etc).

[6] = rat, in vivo, po, 3 mg/kg
Experimental: as §1, §2, §3, §4, §5, §6

[7] = Homo sapiens, OVCAR-3 cells, 96 hours, CellTiter Glo
[8] = Homo sapiens, HCC1806 cells, 96 hours, CellTiter Glo
[9] = male, SD, rat, plasma, po, 3 mg/kg

Cc1cc(NC(=O)c2ccc(NS(=O)(=O)C(C)(C)CO)cc2N2CCC(=C(F)F)CC2)nc(N2CCC(F)(F)CC2)n1 [Compound 60]
IC50 [1]: < 50 nM | IC50 [2]: < 75 nM | IC50 [3]: < 200 nM | IC50 [4]: < 150 nM | AUC0-24 h ([5]; male SD rats, oral 3 mg/kg): 1330.47 ng·h/mL | Cmax ([5]; male SD rats, oral 3 mg/kg): 90.70 ng/mL | T1/2 ([5]; male SD rats, oral 3 mg/kg): 7.47 h | Tmax ([5]; male SD rats, oral 3 mg/kg): 6.67 h

Cc1cc(NC(=O)c2ccc(NS(=O)(=O)[C@H](C)CO)cc2N2CCC(=C(F)F)CC2)nc(N2CCC(F)(F)CC2)n1 [Compound 68]
IC50 [1, 7]: < 50 nM | IC50 ([2]; Homo sapiens): < 50 nM | IC50 [3, 8]: < 100 nM | AUC(0-t) [5, 9]: 3330 ng·h/mL | Cmax [5, 9]: 227 ng/mL | Tmax [5, 9]: 6.67 h | half-life [5, 9]: 7.18 h

CC(C)(C)NS(=O)(=O)c1cccc(NC(=O)c2ccc(S(=O)(=O)C3COC3)cc2N2CCC(=C(F)F)CC2)c1 [Compound 73]
IC50 [1, 7]: < 200 nM | IC50 [3, 8]: < 500 nM

CCc1cc(NC(=O)c2ccc(NS(=O)(=O)CCO)cc2N2CCC(=C(F)F)CC2)nc(N2CCC(F)(F)CC2)n1 [Compound 75]
IC50 [1, 7]: < 200 nM

Cc1cc(NC(=O)c2ccc(NS(=O)(=O)C3CC(O)C3)cc2N2CCC3(CC2)CC3)nc(N2CCC(F)(F)CC2)n1 (stereo not shown) [Compound 47]
IC50 [1, 7]: < 50 nM | IC50 ([2]; Homo sapiens): < 75 nM

Cc1cc(NC(=O)c2ccc(NS(=O)(=O)[C@@H](C)CO)cc2N2CCC(=C(F)F)CC2)nc(N2CCC(F)(F)CC2)n1 [Compound 69]
IC50 [1, 7]: < 100 nM | IC50 ([2]; Homo sapiens): < 200 nM | IC50 [3, 8]: < 200 nM

Cc1cc(NC(=O)c2ccc(NS(=O)(=O)C(C)CO)cc2N2CCC(=C(F)F)CC2)nc(N2CCC(F)(F)CC2)n1 (stereo not shown) [Compound 52]
IC50 [1, 7]: < 50 nM | IC50 [3, 8]: < 100 nM

Cc1cc(NC(=O)c2ccc(NS(=O)(=O)[C@H](C)CO)cc2N2CCC(=C(F)F)CC2)nc(N2CCC(F)(F)CC2)c1 [Compound 82]
AUC(0-t) [5, 9]: 4520 ng·h/mL | Cmax [5, 9]: 363 ng/mL | Tmax [5, 9]: 4.67 h | half-life [5, 9]: 5.01 h

Cc1cc(NC(=O)c2ccc(NS(=O)(=O)C3(CO)CC3)cc2N2CCC(=C(F)F)CC2)nc(N2CCC(F)(F)CC2)n1 [Compound 51]
IC50 [1, 7]: < 50 nM | IC50 ([2]; Homo sapiens): < 100 nM | IC50 [3, 8]: < 200 nM | AUC(0-t) [5, 9]: 424 ng·h/mL | Cmax [5, 9]: 43.3 ng/mL | Tmax [5, 9]: 4.67 h | half-life [5, 9]: 6.68 h

CC(C)(C)NS(=O)(=O)c1cccc(NC(=O)c2ccc(NS(=O)(=O)C3(C)CC3)cc2N2CCC(=C(F)F)CC2)c1 [Compound 39]
IC50 [1, 7]: < 50 nM

N#Cc1ccc(NC(=O)c2ccc(NS(=O)(=O)CCO)cc2N2CCC(=C(F)F)CC2)nc1N1CCC(F)(F)CC1 [Compound 77]
IC50 [1, 7]: < 50 nM

C[C@@H]1CN(c2cccc(NC(=O)c3ccc(NS(=O)(=O)C4(CN5CCC5)CC4)cc3N3CCC4(CC3)CC4)n2)CCO1 [Compound 30]
IC50 [1, 7]: < 500 nM | IC50 [3, 8]: < 1000 nM

CC(C)=C1CCN(c2cc(NS(=O)(=O)CCO)ccc2C(=O)Nc2cc(C)nc(N3CCC(F)(F)CC3)n2)CC1 [Compound 35]
IC50 [1, 7]: < 500 nM

CC(C)(C)NS(=O)(=O)c1cccc(NC(=O)c2ccc(NS(=O)(=O)CCO)cc2N2CCC(=C(F)F)CC2)c1 [Compound 41]
IC50 [1, 7]: < 50 nM

Cc1cc(NC(=O)c2ccc(NS(=O)(=O)CCO)cc2N2CCC(=C(F)F)CC2)cc(N2CCC(F)(F)CC2)c1 [Compound 56]
IC50 [1]: < 50 nM | IC50 [2]: < 75 nM | IC50 [3]: < 100 nM | IC50 [4]: < 50 nM | AUC0-24 h ([5]; male SD rats, oral 3 mg/kg): 2051.53 ng·h/mL | Cmax ([5]; male SD rats, oral 3 mg/kg): 175.28 ng/mL | T1/2 ([5]; male SD rats, oral 3 mg/kg): 3.83 h | Tmax ([5]; male SD rats, oral 3 mg/kg): 4.00 h

CP(=O)(c1cccc(NC(=O)c2ccc(NCCO)nc2N2CCC3(CC2)CC3)c1)C1CCCC1 (stereo not shown) [Compound 46]
IC50 [1, 7]: < 1500 nM

O=C(Nc1cccc(N2CCC(F)(F)CC2)n1)c1ccc(NS(=O)(=O)CCO)cc1N1CCC(=C(F)F)CC1 [Compound 40]
IC50 [1, 7]: < 50 nM

CC(C)(CO)Nc1ccc(C(=O)Nc2cccc(S(=O)(=O)C3CCCC3)c2)c(N2CCC(=C(F)F)CC2)n1 [Compound 59]
IC50 [1, 7]: < 75 nM | IC50 ([2]; Homo sapiens): < 75 nM | IC50 [3, 8]: < 200 nM

C[C@@H]1CN(c2cccc(NC(=O)c3ccc(NS(=O)(=O)C4(CN5CC(O)C5)CC4)cc3N3CCC4(CC3)CC4)n2)CCO1 [Compound 32]
IC50 [1, 7]: < 1500 nM | IC50 [3, 8]: < 1000 nM

Cc1cc(NC(=O)c2ccc(NS(=O)(=O)CCO)cc2N2CCC(=C(F)F)CC2)nc(N2CCC(F)(F)CC2)c1F [Compound 79]
IC50 [1, 7]: < 50 nM | AUC(0-t) [5, 9]: 2240 ng·h/mL | Cmax [5, 9]: 160 ng/mL | Tmax [5, 9]: 5.33 h | half-life [5, 9]: 7.61 h

CC(C)=C1CCN(c2nc(NCCO)ccc2C(=O)Nc2cccc(S(=O)(=O)C3CCCC3)c2)CC1 [Compound 44]
IC50 [1, 7]: < 2000 nM

Cc1cc(NC(=O)c2ccc(NS(=O)(=O)C3(CO)CC3)cc2N2CCC3(CC2)CC3)nc(N2CCC(=C(F)F)CC2)n1 [Compound 13]
IC50 [1, 7]: < 500 nM | IC50 [3, 8]: < 500 nM

Cc1nc(N2CCC(F)(F)CC2)nc(NC(=O)c2ccc(NS(=O)(=O)CCO)cc2N2CCC(=C(F)F)CC2)c1F [Compound 74]
IC50 [1, 7]: < 1000 nM | IC50 ([2]; Homo sapiens): < 1000 nM

Cc1cc(NC(=O)c2ccc(NS(=O)(=O)C3(CN4CC(O)C4)CC3)cc2N2CCC3(CC2)CC3)nc(N2CCC(F)(F)CC2)n1 [Compound 20]
IC50 [1, 7]: < 1000 nM | IC50 [3, 8]: < 1000 nM

O=C(Nc1cccc(N2CC(F)(F)C2)n1)c1ccc(NS(=O)(=O)C2(CN3CCC3)CC2)cc1N1CCC2(CC1)CC2 [Compound 29]
IC50 ([1]; Homo sapiens, OVCAR-3, 96 h): < 500 nM | IC50 ([3]; Homo sapiens, HCC1806, 96 h): < 1000 nM

CC(C)(C)NS(=O)(=O)c1cccc(NC(=O)c2ccc(S(=O)(=O)C3(C)COC3)cc2N2CCC(=C(F)F)CC2)c1 [Compound 67]
IC50 [1, 7]: < 500 nM | IC50 [3, 8]: < 1000 nM

Cc1cc(NC(=O)c2ccc(NS(=O)(=O)CCO)cc2N2CCC(=C(F)F)CC2)nc(N2CCC(F)(F)CC2)c1 [Compound 48]
IC50 [1]: < 50 nM | IC50 [2]: < 50 nM | IC50 [3]: < 50 nM | IC50 [4]: < 50 nM | AUC0-24 h [6]: 1724.65 ng·h/mL | Cmax [6]: 153.57 ng/mL | T1/2 [6]: 4.91 h | Tmax [6]: 4.00 h

Cc1cc(NC(=O)c2ccc(NS(=O)(=O)C(F)CO)cc2N2CCC(=C(F)F)CC2)nc(N2CCC(F)(F)CC2)n1 (stereo not shown) [Compound 72]
IC50 [1, 7]: < 200 nM | IC50 [3, 8]: < 500 nM

CC(C)(C)NS(=O)(=O)c1cccc(NC(=O)c2ccc(S(=O)(=O)NC(C)(C)C)cc2N2CCC(=C(F)F)CC2)c1 [Compound 63]
IC50 [1, 7]: < 50 nM | IC50 ([2]; Homo sapiens): < 50 nM | IC50 [3, 8]: < 75 nM

Cc1cc(NC(=O)c2ccc(NS(=O)(=O)C(C)CO)cc2N2CCC3(CC2)CC3)nc(N2CCC(=C(F)F)CC2)n1 (stereo not shown) [Compound 3C]
IC50 [1, 7]: < 200 nM | IC50 [3, 8]: < 500 nM

C=C(C)C1CCN(c2cc(NS(=O)(=O)C3(C)CC3)ccc2C(=O)Nc2cccc(S(=O)(=O)NC(C)(C)C)c2)CC1 [Compound 36]
IC50 [1, 7]: < 200 nM

Cc1cc(NC(=O)c2ccc(NS(=O)(=O)CCO)nc2N2CCC(=C(F)F)CC2)nc(N2CCC(F)(F)CC2)n1 [Compound 65]
IC50 [1, 7]: < 500 nM | IC50 [3, 8]: < 1000 nM

C[C@@H]1CN(c2cccc(NC(=O)c3ccc(NS(=O)(=O)CCO)cc3N3CCC(=C(F)F)CC3)n2)CCO1 [Compound 53]
IC50 [1, 7]: < 50 nM | IC50 ([2]; Homo sapiens): < 50 nM

Cc1cc(NC(=O)c2ccc(NS(=O)(=O)CCO)cc2N2CCC(=C(F)F)CC2)nc(N2CCC(F)(F)CC2)n1 [Compound 33]
IC50 [1]: < 75 nM | IC50 [2]: < 75 nM | IC50 [3]: < 200 nM | IC50 [4]: < 50 nM | AUC0-24 h [6]: 10273.88 ng·h/mL | Cmax [6]: 717.6 ng/mL | T1/2 [6]: 7.05 h | Tmax [6]: 8.00 h

CC(C)(C)NS(=O)(=O)c1cccc(NC(=O)c2ccc(NC(C)(C)CO)nc2N2CCC(=C(F)F)CC2)c1 [Compound 62]
IC50 [1, 7]: < 200 nM | IC50 [3, 8]: < 500 nM
